Data on 22 compounds can be found in US20240300980A1, “HETEROCYCLIC COMPOUNDS AS KRAS INHIBITOR, AND PREPARATION THEREFOR AND USE THEREOF IN TREATMENT” (SHANGHAI KECHOW PHARMA, INC., priority 2021, published 2024).

One may read the IC50 as the concentration that gives 50% inhibition.

The test system of one experiment is AGS cells (KRAS^G12D). In words: Detection of cell proliferation in vitro by MTT/MTS method (cell activity experiment). The settings on record: AGS cells; MTT/MTS; 3 days of drug treatment; read-out: AGS IC50. Type of experiment: cell-based. An outline of the steps:
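After 3-day compound exposure (final DMSO 0.5%), viability of AGS (KRAS G12D) cells, plated 1000/well one day before dosing, was measured at 490 nm following 4 h MTT or MTS incubation. IC50 was fitted from dose–effect curves relative to DMSO-treated wells.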
(Tetrazolium dyes change colour on reduction, which living cells bring about.)
Regarding `C#Cc1c(F)ccc2cc(O)cc(-c3cc4nc(OC[C@@]56CCCN5C[C@H](F)C6)nc(N5C[C@H]6CC[C@@H](C5)N6)c4c4occc34)c12` [Example 384, 4-(9-((2R,5S)-3,8-diazabicyclo[3.2.1]octan-3-yl)-7-(((2R,7aS)-2-fluorotetrahydro-1H-pyrrolizin-7a(5H)-yl)methoxy)furo[2,3-f]quinazolin-4-yl)-5-ethynyl-6-fluoronaphthalen-2-ol], the IC50 worked out at 212 nM.
As for `CC1CCCc2cc(O)cc(-c3ccc4c(N5C[C@H]6CC[C@@H](C5)N6)nc(OC[C@@]56CCCN5C[C@H](F)C6)nc4c3F)c21` (single isomer, unassigned) [Example 287], the IC50 came out at 2140 nM.

Still in this experiment, the particulars now being: Homo sapiens, AGS, 72 h, AGS cells; MTT/MTS; 3 days of drug treatment; read-out: AGS IC50.
Take `CCc1c(F)ccc2cc(O)cc(-c3ccc4c(N5C[C@H]6CC[C@@H](C5)N6)c(C#N)c(OC[C@@]56CCCN5C[C@H](F)C6)nc4c3F)c12` [Example 178, 4-((1R,5S)-3,8-diazabicyclo[3.2.1]octan-3-yl)-7-(8-ethyl-7-fluoro-3-hydroxynaphthalen-1-yl)-8-fluoro-2-(((2R,7aS)-2-fluorotetrahydro-1H-pyrrolizin-7a(5H)-yl)methoxy)quinoline-3-carbonitrile]: the IC50 stood at 535 nM.
On the same count and under the same terms, in the case of `CC1CCCc2cc(O)cc(-c3ncc4c(N5C[C@H]6CC[C@@H](C5)N6)nc(OC[C@@]56CCCN5C[C@H](F)C6)nc4c3F)c21` (stereo partly drawn) [Example 224, 4-(4-((1R,5S)-3,8-diazabicyclo[3.2.1]octan-3-yl)-8-fluoro-2-(((2R,7aS)-2-fluorotetrahydro-1H-pyrrolizin-7a(5H)-yl)methoxy)pyrido[4,3-d]pyrimidin-7-yl)-5-methyl-5,6,7,8-tetrahydronaphthalen-2-ol] it was 4.8 nM; in that of `C#Cc1c(F)ccc2cc(O)cc(-c3c(F)c4nc(OC[C@@]56CCCN5C[C@H](F)C6)nc(N5C[C@H]6CC[C@@H](C5)N6)c4c4nccn34)c12` [Example 399, 4-(10-((1R,5S)-3,8-diazabicyclo[3.2.1]octan-3-yl)-6-fluoro-8-(((2R,7aS)-2-fluorotetrahydro-1H-pyrrolizin-7a(5H)-yl)methoxy)imidazo[1′,2′:1,2]pyrido[4,3-d]pyrimidin-5-yl)-5-ethynyl-6-fluoronaphthalen-2-ol], 65 nM.
The same measure, in the same setting: in the case of `C#Cc1c(F)ccc2cc(O)cc(-c3ncc4c(N5CC6CCC5CN6)nc(OC[C@@]56CCCN5C[C@H](F)C6)nc4c3F)c12` (stereo partly drawn) [Example 46, 4-(4-(2,5-diazabicyclo [2.2.2]octan-2-yl)-8-fluoro-2-(((2R,7aS)-2-fluorotetrahydro-1H-pyrrolizin-7a(5H)-yl)methoxy)pyrido[4,3-d]pyrimidin-7-yl)-5-ethynyl-6-fluoronaphthalen-2-ol] it was 13 nM; in that of `Oc1cc2c(c(-c3ccc4c(N5C[C@H]6CC[C@@H](C5)N6)nc(OC[C@@]56CCCN5C[C@H](F)C6)nc4c3F)c1)CCCC2` [Example 420, 4-(4-((1R,5S)-3,8-diazabicyclo[3.2.1]octan-3-yl)-8-fluoro-2-(((2R,7aS)-2-fluorotetrahydro-1H-pyrrolizin-7a(5H)-yl)methoxy)quinazolin-7-yl)-5,6,7,8-tetrahydronaphthalen-2-ol], 60 nM.
`CCC1CCCc2cc(O)cc(-c3c4c(c5c(N6C[C@H]7CC[C@@H](C6)N7)nc(OC[C@@]67CCCN6C[C@H](F)C7)nc5c3F)CCC4)c21` (stereo partly drawn) [Example 383, 4-(1-((1R,5S)-3,8-diazabicyclo[3.2.1]octan-3-yl)-5-fluoro-3-(((2R,7aS)-2-fluorotetrahydro-1H-pyrrolizin-7a(5H)-yl)methoxy)-8,9-dihydro-7H-cyclopenta[f]quinazolin-6-yl)-5-ethyl-5,6,7,8-tetrahydronaphthalen-2-ol]: the IC50 came out at 50 nM.
Same read-out and setting: for `C#Cc1cccc2cc(O)cc(-c3ncc4c(C5C[C@H]6CC[C@@H](C5)N6)nc(OC[C@@]56CCCN5C[C@H](F)C6)nc4c3F)c12` (stereo partly drawn) [Example 83, 4-(4-((1R,5S)-8-azabicyclo[3.2.1]octan-3-yl)-8-fluoro-2-(((2R,7aS)-2-fluorotetrahydro-1H-pyrrolizin-7a(5H)-yl)methoxy)pyrido [4,3-d]pyrimidin-7-yl)-5-ethynylnaphthalen-2-ol] the value was greater than 2500 nM; for `Oc1cc(-c2c3c(c4c(N5C[C@H]6CC[C@@H](C5)N6)nc(OC[C@@]56CCCN5C[C@H](F)C6)nc4c2F)OCO3)c2ccccc2c1` [Example 389, 4-(9-((1R,5S)-3,8-diazabicyclo[3.2.1]octan-3-yl)-5-fluoro-7-(((2R,7aS)-2-fluorotetrahydro-1H-pyrrolizin-7a(5H)-yl)methoxy)-[1,3]dioxolo[4,5-f]quinazolin-4-yl)naphthalen-2-ol], 180 nM; for `CCc1nccc2cc(O)cc(-c3ncc4c(N5C[C@H]6CC[C@@H](C5)N6)nc(OC[C@@]56CCCN5C[C@H](F)C6)nc4c3F)c12` [Example 340, 8-(4-((1R,5S)-3,8-diazabicyclo[3.2.1]octan-3-yl)-8-fluoro-2-(((2R,7aS)-2-fluorotetrahydro-1H-pyrrolizin-7a(5H)-yl)methoxy)pyrido[4,3-d]pyrimidin-7-yl)-1-ethylisoquinolin-6-ol], 20 nM.
In the case of `C#Cc1c(F)ccc2cc(O)cc(-c3ccc4c(N5CCC(NS(C)(=O)=O)C5)nc(OC[C@@]56CCCN5C[C@H](F)C6)nc4c3F)c12` (stereo partly drawn) [Example 117, N-(1-(7-(8-ethynyl-7-fluoro-3-hydroxynaphthalen-1-yl)-8-fluoro-2-(((2R, 7aS)-2-fluorotetrahydro-1H-pyrrolizin-7a(5H)-yl)methoxy)quinazolin-4-yl)pyrrolidin-3-yl)methanesulfonamide], the IC50 was greater than 2500 nM.
On to `CCc1nccc2cc(O)cc(-c3ccc4c(N5C[C@H]6CC[C@@H](C5)N6)nc(OC[C@@]56CCCN5C[C@H](F)C6)nc4c3F)c12` [Example 344, 8-(4-((1R,5S)-3,8-diazabicyclo[3.2.1]octan-3-yl)-8-fluoro-2-(((2R,7aS)-2-fluorotetrahydro-1H-pyrrolizin-7a(5H)-yl)methoxy)quinazolin-7-yl)-1-ethylisoquinolin-6-ol], for which the IC50 stood at 35 nM.
As to `Oc1cc(-c2ccc3c(N4C[C@H]5CC[C@@H](C4)N5)nc(OC[C@@]45CCCN4C[C@H](F)C5)nc3c2F)c2c(F)cccc2c1` [Example 95, 4-(4-((1R,5S)-3,8-diazabicyclo[3.2.1]octan-3-yl)-8-fluoro-2-(((2R,7aS)-2-fluorotetrahydro-1H-pyrrolizin-7a(5H)-yl)methoxy)quinazolin-7-yl)-5-fluoronaphthalen-2-ol], the IC50 worked out at 13.5 nM.
Same read-out and setting: for `C#Cc1cccc2cc(O)cc(-c3ccc4c(N5C[C@H]6CC[C@@H](C5)N6)nc(OC[C@@]56CCCN5C[C@H](F)C6)nc4c3F)c12` [Example 89, 4-(4-((1R,5S)-3,8-diazabicyclo[3.2.1]octan-3-yl)-8-fluoro-2-(((2R,7aS)-2-fluorotetrahydro-1H-pyrrolizin-7a(5H)-yl)methoxy)quinazolin-7-yl)-5-ethynylnaphthalen-2-ol] the value was 1.5 nM; for `Oc1cc(-c2ccc3c(N4C[C@H]5CC[C@@H](C4)N5)nc(OCC4(CN5CCCC5)CC4)nc3c2F)c2c(F)cccc2c1` [Example 102, 4-(4-((1R,5S)-3,8-diazabicyclo[3.2.1]octan-3-yl)-8-fluoro-2-((1-(pyrrolidin-1-ylmethyl)cyclopropyl)methoxy)quinazolin-7-yl)-5-fluoronaphthalen-2-ol], 33 nM; for `C#Cc1c(F)ccc2cc(O)cc(-c3ncc4c(N5C[C@H]6CC[C@@H](C5)N6)nc(OCC56CC5CCN6C)nc4c3F)c12` (stereo partly drawn) [Example 77, 4-(4-((1R,5S)-3,8-diazabicyclo[3.2.1]octan-3-yl)-8-fluoro-2-((2-methyl-2-azabicyclo[3.1.0]hexan-1-yl)methoxy)pyrido [4,3-d]pyrimidin-7-yl)-5-ethynyl-6-fluoronaphthalen-2-ol], greater than 2500 nM.
As to `C#Cc1c(F)ccc2cc(O)cc(-c3ccc4c(N5CC(C(C)(C)N)C5)nc(OC[C@@]56CCCN5C[C@H](F)C6)nc4c3F)c12` [Example 212, 4-(4-(3-(2-aminopropan-2-yl)azetidin-1-yl)-8-fluoro-2-(((2R,7aS)-2-fluorotetrahydro-1H-pyrrolizin-7a(5H)-yl)methoxy)quinazolin-7-yl)-5-ethynyl-6-fluoronaphthalen-2-ol], the IC50 was found to be 419 nM.
The same measure, in the same setting: in the case of `CCC1CCCc2cc(O)cc(-c3ncc4c(N5C[C@H]6CC[C@@H](C5)N6)nc(OC[C@@]56CCCN5C[C@H](F)C6)nc4c3F)c21` (stereo partly drawn) [Example 227, 4-(4-((1R,5S)-3,8-diazabicyclo[3.2.1]octan-3-yl)-8-fluoro-2-(((2R,7aS)-2-fluorotetrahydro-1H-pyrrolizin-7a(5H)-yl)methoxy)pyrido[4,3-d]pyrimidin-7-yl)-5-ethyl-5,6,7,8-tetrahydronaphthalen-2-ol] it was 5 nM; in that of `C#Cc1c(F)ccc2cc(O)cc(-c3ccc4c(N5C[C@H]6CC[C@@H](C5)N6)nc(OC[C@@]56CCCN5C[C@H](F)C6)nc4c3)c12` [Example 148, 4-(4-((1R,5S)-3,8-diazabicyclo[3.2.1]octan-3-yl)-2-(((2R, 7aS)-2-fluorotetrahydro-1H-pyrrolizin-7a(5H)-yl)methoxy)quinazolin-7-yl)-5-ethynyl-6-fluoronaphthalen-2-ol], 318 nM.
Take `C#Cc1c(F)ccc2cc(O)cc(-c3ccc4c(N5CC6CCCC(C5)N6)nc(OC[C@@]56CCCN5C[C@H](F)C6)nc4c3F)c12` [Example 105, 4-(4-(3,9-diazabicyclo [3.3.1]nonan-3-yl)-8-fluoro-2-(((2R,7aS)-2-fluorotetrahydro-1H-pyrrolizin-7a(5H)-yl)methoxy)quinazolin-7-yl)-5-ethynyl-6-fluoronaphthalen-2-ol]: the IC50 is 80 nM.

The experiment is the same for the next values; noted with them: Homo sapiens, AGS, 72 h, read-out: AGS IC50.
As for `CCC1CCc2cc(O)cc(-c3ncc4c(N5C[C@H]6CC[C@@H](C5)N6)nc(OC[C@@]56CCCN5C[C@H](F)C6)nc4c3F)c21` (stereo partly drawn) [Example 220, 7-(4-((1R,5S)-3,8-diazabicyclo[3.2.1]octan-3-yl)-8-fluoro-2-(((2R,7aS)-2-fluorotetrahydro-1H-pyrrolizin-7a(5H)-yl)methoxy)pyrido[4,3-d]pyrimidin-7-yl)-1-ethyl-2,3-dihydro-1H-inden-5-ol], the IC50 came out at 5 nM.
